{
  "source": "patent US11591336B2",
  "about": "(Relay Therapeutics, Inc., priority 2017, dated 2023)",
  "note": "Where a name gives a salt, the structure may show the parent alone.",
  "data": [
    {"molecular_target": "SHP2 (Homo sapiens (Human), UniProt Q06124)", "sequence (Q06124 whole entry)": "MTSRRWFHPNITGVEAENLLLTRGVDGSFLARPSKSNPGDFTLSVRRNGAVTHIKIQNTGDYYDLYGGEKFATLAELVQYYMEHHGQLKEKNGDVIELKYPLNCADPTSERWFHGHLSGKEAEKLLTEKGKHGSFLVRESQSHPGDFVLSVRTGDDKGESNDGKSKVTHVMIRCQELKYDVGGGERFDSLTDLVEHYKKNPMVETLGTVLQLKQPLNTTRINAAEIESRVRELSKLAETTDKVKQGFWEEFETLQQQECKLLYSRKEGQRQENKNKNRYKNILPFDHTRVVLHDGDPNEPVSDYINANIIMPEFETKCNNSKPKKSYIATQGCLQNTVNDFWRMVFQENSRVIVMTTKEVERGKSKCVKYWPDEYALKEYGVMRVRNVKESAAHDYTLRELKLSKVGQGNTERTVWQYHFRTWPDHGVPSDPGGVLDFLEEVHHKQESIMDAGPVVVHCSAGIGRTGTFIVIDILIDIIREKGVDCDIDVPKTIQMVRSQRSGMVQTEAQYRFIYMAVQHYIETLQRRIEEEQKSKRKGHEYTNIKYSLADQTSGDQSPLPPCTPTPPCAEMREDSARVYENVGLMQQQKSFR", "test": "SHP2 Allosteric Inhibition Assay (DiFMUP prompt fluorescence)", "assay_type": "biochemical", "conditions": "0.25 nM SHP2 activated with 0.5 μM peptide IRS1_pY1172(dPEG8)pY1222; substrate DiFMUP 100 μM; 25° C.", "units": {"IC50": "nM"}, "values": [
      {"smiles": "C[S+]([O-])c1cccc2c1CCCN2c1n[nH]c2nc(N3CCC(C)(CN)CC3)cnc12", "note": "(stereo not shown) [Compound 192]", "IC50": "< 1000"},
      {"smiles": "CCC(=O)N1CCN(c2n[nH]c3nc(N4CCC(C)(CN)CC4)cnc23)c2ccccc21", "note": "[Compound 193]", "IC50": "< 1000"},
      {"smiles": "CC1(CN)CCN(c2cnc3c(N4CCN(C(=O)CO)c5ccccc54)n[nH]c3n2)CC1", "note": "[Compound 194, 1-(4-(6-(4-(aminomethyl)-4-methylpiperidin-1-yl)-1H-pyrazolo[3,4-b]pyrazin-3-yl)-3,4-dihydroquinoxalin-1(2H)-yl)-2-hydroxyethan-1-one]", "IC50": "< 1000"},
      {"smiles": "CN1CCN(c2n[nH]c3nc(N4CCC(C)(CN)CC4)cnc23)c2ccc(Cl)nc21", "note": "[Compound 195]", "IC50": "< 1000"},
      {"smiles": "C[C@H]1CCN(c2n[nH]c3nc(N4CCC(C)(CN)CC4)cnc23)c2ccc(-c3nnc[nH]3)nc21", "note": "[Compound 198, 1-(4-methyl-1-{3-[(4S)-4-methyl-6-(4H-1,2,4-triazol-3-yl)-1,2,3,4-tetrahydro-1,5-naphthyridin-1-yl]-1H-pyrazolo[3,4-b]pyrazin-6-yl}piperidin-4-yl)methanamine]", "IC50": "< 1000"},
      {"smiles": "C[C@@H]1CCN(c2n[nH]c3nc(N4CCC(C)(CN)CC4)cnc23)c2ccc(-c3nnc[nH]3)nc21", "note": "[Compound 199, 1-(4-methyl-1-{3-[(4R)-4-methyl-6-(4H-1,2,4-triazol-3-yl)-1,2,3,4-tetrahydro-1,5-naphthyridin-1-yl]-1H-pyrazolo[3,4-b]pyrazin-6-yl}piperidin-4-yl)methanamine]", "IC50": "< 1000"},
      {"smiles": "C[C@@H]1OCC2(CCN(c3cnc4c(N5CCCc6ncccc65)n[nH]c4n3)CC2)C1O", "note": "(stereo partly drawn) [Compound 201, (3S)-8-(3-(3,4-dihydro-1,5-naphthyridin-1(2H)-yl)-1H-pyrazolo[3,4-b]pyrazin-6-yl)-3-methyl-2-oxa-8-azaspiro[4.5]decan-4-ol]", "IC50": "≥ 10000"},
      {"smiles": "NC1=NCCC12CCN(c1cnc3c(N4CCCc5ncccc54)n[nH]c3n1)CC2", "note": "[Compound 202, 8-(3-(3,4-dihydro-1,5-naphthyridin-1(2H)-yl)-1H-pyrazolo[3,4-b]pyrazin-6-yl)-2,8-diazaspiro[4.5]dec-1-en-1-amine dihydrochloride]", "IC50": "< 1000"},
      {"smiles": "NC1CCCC12CCN(c1cnc3c(N4CCCc5ncccc54)n[nH]c3n1)C2", "note": "(stereo not shown) [Compound 203, 2-(3-(3,4-dihydro-1,5-naphthyridin-1(2H)-yl)-1H-pyrazolo[3,4-b]pyrazin-6-yl)-2-azaspiro[4.4]nonan-6-amine]", "IC50": "1000 to 10000"},
      {"smiles": "C[C@@H]1OCC2(CCN(c3cnc4c(N5CCCc6c5ccc(C#N)c6C5CC5)n[nH]c4n3)CC2)[C@@H]1N", "note": "[Compound 207]", "IC50": "< 1000"},
      {"smiles": "Cc1c(C#N)ccc2c1CCCN2c1n[nH]c2nc(N3CCC4(CC3)CO[C@@H](C)[C@H]4N)cnc12", "note": "[Compound 208]", "IC50": "< 1000"},
      {"smiles": "C[C@@H]1OCC2(CCN(c3cnc4c(N5CCCc6c(-c7cnn(C)c7)cccc65)n[nH]c4n3)CC2)[C@@H]1N", "note": "[Compound 209]", "IC50": "< 1000"},
      {"smiles": "C[C@@H]1OCC2(CCN(c3cnc4c(N5CCCc6c5ccc(C#N)c6-c5cnn(C)c5)n[nH]c4n3)CC2)[C@@H]1N", "note": "[Compound 210]", "IC50": "1000 to 10000"},
      {"smiles": "N[C@H]1CCCC12CCN(c1cnc3c(N4CCCc5ncccc54)n[nH]c3n1)CC2", "note": "[Compound 211]", "IC50": "< 1000"},
      {"smiles": "N[C@@H]1CCCC12CCN(c1cnc3c(N4CCCc5ncccc54)n[nH]c3n1)CC2", "note": "[Compound 212]", "IC50": "< 1000"},
      {"smiles": "N[C@H]1COCC12CCN(c1cnc3c(N4CCCc5ncccc54)n[nH]c3n1)CC2", "note": "[Compound 213]", "IC50": "< 1000"},
      {"smiles": "N[C@@H]1COCC12CCN(c1cnc3c(N4CCCc5ncccc54)n[nH]c3n1)CC2", "note": "[Compound 214]", "IC50": "< 1000"},
      {"smiles": "O=C1NC2(CCN(c3cnc4c(N5CCCc6ncccc65)n[nH]c4n3)CC2)CO1", "note": "[Compound 215]", "IC50": "1000 to 10000"},
      {"smiles": "NC1=NC2(CCN(c3cnc4c(N5CCCc6ncccc65)n[nH]c4n3)CC2)CO1", "note": "[Compound 216, 8-(3-(3,4-dihydro-1,5-naphthyridin-1(2H)-yl)-1H-pyrazolo[3,4-b]pyrazin-6-yl)-3-oxa-1,8-diazaspiro[4.5]dec-1-en-2-amine hydrochloride]", "IC50": "< 1000"}
    ]}
  ]
}
